Experimental data published in ChEMBL document CHEMBL1140629, “2D QSAR studies on thyroid hormone receptor ligands” (Bioorg Med Chem, 2007).
pIC50: −log10 of the molar value.

Columns and labels:
[1] = biological target: T1, Thyroid hormone receptor beta (Homo sapiens, UniProt P10828)
T1 sequence (P10828 whole entry): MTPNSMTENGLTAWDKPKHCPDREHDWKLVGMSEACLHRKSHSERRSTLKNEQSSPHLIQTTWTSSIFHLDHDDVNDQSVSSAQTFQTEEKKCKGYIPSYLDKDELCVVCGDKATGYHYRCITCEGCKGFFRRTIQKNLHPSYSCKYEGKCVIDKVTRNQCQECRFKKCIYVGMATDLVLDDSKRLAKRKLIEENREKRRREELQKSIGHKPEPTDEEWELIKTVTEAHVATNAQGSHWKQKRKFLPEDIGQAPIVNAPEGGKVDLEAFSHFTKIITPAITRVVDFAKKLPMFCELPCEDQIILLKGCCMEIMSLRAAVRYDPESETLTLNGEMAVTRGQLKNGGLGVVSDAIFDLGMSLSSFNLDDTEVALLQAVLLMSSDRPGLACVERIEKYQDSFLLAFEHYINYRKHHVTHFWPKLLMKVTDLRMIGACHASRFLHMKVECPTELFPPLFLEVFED

[2] = biological target: T2, Thyroid hormone receptor alpha (Homo sapiens, UniProt P10827)
T2 sequence (P10827 whole entry): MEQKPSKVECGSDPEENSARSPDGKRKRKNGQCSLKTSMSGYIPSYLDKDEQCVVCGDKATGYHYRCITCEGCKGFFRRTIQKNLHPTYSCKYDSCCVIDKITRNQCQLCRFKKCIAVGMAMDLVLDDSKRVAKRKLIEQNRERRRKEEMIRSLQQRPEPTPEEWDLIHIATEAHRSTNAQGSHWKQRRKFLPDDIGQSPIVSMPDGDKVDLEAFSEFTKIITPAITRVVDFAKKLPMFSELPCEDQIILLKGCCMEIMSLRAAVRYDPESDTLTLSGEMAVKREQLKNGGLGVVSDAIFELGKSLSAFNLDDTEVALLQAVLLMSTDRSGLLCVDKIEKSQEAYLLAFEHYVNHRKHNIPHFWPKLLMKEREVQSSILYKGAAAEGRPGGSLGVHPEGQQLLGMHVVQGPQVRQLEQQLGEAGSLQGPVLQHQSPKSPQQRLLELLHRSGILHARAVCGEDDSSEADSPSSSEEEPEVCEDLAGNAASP

O=C(O)Cc1cc(Br)c(Oc2ccc(O)c(C(=O)Nc3ccccc3)c2)c(Br)c1
pIC50 [1]: 7.45

CCCCOc1c(Br)cc(CC(=O)O)cc1Br
pIC50 [2]: 4.58

O=C(O)Cc1cc(Cl)c(Oc2ccc(O)c(-c3cccc(C(F)(F)F)c3)c2)c(Cl)c1
pIC50 [1]: 9.07

O=C(O)Cc1cc(Cl)c(Oc2ccc(O)c(-c3ccccc3C(F)(F)F)c2)c(Cl)c1
pIC50 [1]: 8.49

O=C(O)Cc1cc(Cl)c(Oc2ccc(O)c(-c3ccccc3)c2)c(Cl)c1
pIC50 [2]: 6.89

O=C(O)Cc1cc(Br)c(OC2CCCCC2)c(Br)c1
pIC50 [2]: 5.57 | pIC50 [1]: 6.11

O=C(O)Cc1cc(Br)c(Oc2ccc(O)c(C(=O)NCc3ccccc3)c2)c(Br)c1
pIC50 [2]: 7.07

O=C(O)Cc1cc(Br)c(Oc2ccc(O)c(Cc3ccc(C(F)(F)F)cc3)c2)c(Br)c1
pIC50 [2]: 6.47 | pIC50 [1]: 8.02

O=C(O)Cc1cc(Cl)c(Oc2ccc(O)c(-c3cccc(O)c3)c2)c(Cl)c1
pIC50 [2]: 5.93

O=C(O)Cc1cc(Br)c(Oc2ccc(O)c(Oc3ccc(O)cc3)c2)c(Br)c1
pIC50 [2]: 6.62

O=C(O)CCc1cc(Br)c(OC2CCCCC2)c(Br)c1
pIC50 [2]: 6.34 | pIC50 [1]: 6.72

O=C(O)Cc1cc(Br)c(Oc2ccc(O)c(C(=O)NCCc3ccccn3)c2)c(Br)c1
pIC50 [2]: 5.94

CC(C)c1cc(Oc2c(Cl)cc3[nH]c(C(=O)O)cc(=O)c3c2Cl)ccc1O
pIC50 [1]: 7.82

CC(C)c1cc(Oc2c(Br)cc3c(c2Br)CC(C(=O)O)N3)ccc1O (stereo unspecified)
pIC50 [2]: 7.42 | pIC50 [1]: 8.07

COc1cccc(CCNC(=O)c2cc(Oc3c(Br)cc(CC(=O)O)cc3Br)ccc2O)c1
pIC50 [1]: 8.31

O=C(O)Cc1cc(Cl)c(Oc2ccc(O)c(C(=O)NCc3ccccc3)c2)c(Cl)c1
pIC50 [2]: 6.90 | pIC50 [1]: 8.46
